Tests used:
Cyclic GMP-AMP synthase [1] = molecular target: T1, Cyclic GMP-AMP synthase (Homo sapiens, UniProt Q8N884); experiment: Ratio of IC50 for inhibition of cGAS in human THP-1 cells using cGAMP as substrate to IC50 for inhibition of cGAS in human THP-1 cells expressed in baculovirus infected insect cells
Cyclic GMP-AMP synthase [2] = molecular target: T1, Cyclic GMP-AMP synthase; experiment: Inhibition of cGAS in dsDNA stimulated human Whole blood cell by measuring IFNalpha-2a production incubated for 60 mins followed by addition of double stranded DNA measured after 1350 mins by microplate reader assay; assay type: tissue-based
Cyclic GMP-AMP synthase [3] = molecular target: T1, Cyclic GMP-AMP synthase; experiment: Inhibition of cGAS in human THP-1 cells expressed in baculovirus infected insect cells incubated for 18 hrs by Lucia luciferase reporter assay
Cyclic GMP-AMP synthase [4] = molecular target: T1, Cyclic GMP-AMP synthase; experiment: Inhibition of N-terminal 6His-SUMO tagged human cGAS (1 to 522 residues) extracted from Escherichia coli BL21(DE3)pLysS cells using GTP/ATP as substrate by measuring cGAMP production incubated for 90 mins in presence of 45 base pair DNA by mass spectrometric analysis

T1 sequence (Q8N884 whole entry): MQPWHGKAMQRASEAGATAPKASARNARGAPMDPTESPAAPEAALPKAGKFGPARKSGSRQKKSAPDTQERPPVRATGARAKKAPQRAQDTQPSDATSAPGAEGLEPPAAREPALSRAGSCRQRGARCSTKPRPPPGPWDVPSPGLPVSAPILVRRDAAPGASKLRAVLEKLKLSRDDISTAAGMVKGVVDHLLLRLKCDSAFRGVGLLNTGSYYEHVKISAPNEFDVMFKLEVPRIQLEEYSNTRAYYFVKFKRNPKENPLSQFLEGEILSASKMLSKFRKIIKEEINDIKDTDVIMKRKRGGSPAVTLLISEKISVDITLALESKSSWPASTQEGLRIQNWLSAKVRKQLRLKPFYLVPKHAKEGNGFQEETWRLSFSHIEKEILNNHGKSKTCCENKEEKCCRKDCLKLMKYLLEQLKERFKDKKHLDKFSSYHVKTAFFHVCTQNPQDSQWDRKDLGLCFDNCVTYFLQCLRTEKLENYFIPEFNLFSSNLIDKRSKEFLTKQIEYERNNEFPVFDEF

SMILES: C[C@H]1CN2CC[C@@H]1n1c(nc3cc(Cl)ccc31)O[C@H]1C[C@@H](C(=O)O)N(C1)c1nc(nc3c1oc1cc(Cl)ccc13)CCOCCCC2=O
- Ratio IC50 (Cyclic GMP-AMP synthase [1]): 3930
- IC50 (Cyclic GMP-AMP synthase [2]): 17 nM
- IC50 (Cyclic GMP-AMP synthase [3]): 2.4 nM

SMILES: C[C@H]1CN2CC[C@H]1n1c(nc3ccccc31)O[C@H]1C[C@@H](C(=O)O)N(C1)c1nc(nc3c1oc1ccccc13)C(F)(F)COCCCCC2=O
- Ratio IC50 (Cyclic GMP-AMP synthase [1]): 32100
- IC50 (Cyclic GMP-AMP synthase [2]): 1 nM
- IC50 (Cyclic GMP-AMP synthase [4]): 2.1 nM
- IC50 (Cyclic GMP-AMP synthase [3]): 0.44 nM

SMILES: C[C@H]1CN2CC[C@@H]1n1c(nc3ccccc31)O[C@H]1C[C@@H](C(=O)O)N(C1)c1nc(nc3c1oc1cc(Cl)ccc13)C(F)(F)CCCOCC2=O
- Ratio IC50 (Cyclic GMP-AMP synthase [1]): > 6580
- IC50 (Cyclic GMP-AMP synthase [2]): 4 nM
- IC50 (Cyclic GMP-AMP synthase [3]): 1.5 nM

SMILES: C[C@H]1CN2CC[C@@H]1n1c(nc3ccccc31)O[C@H]1C[C@@H](C(=O)O)N(C1)c1nc(nc3c1oc1ccccc13)C(F)(F)CCCCC(F)(F)C2=O
- Ratio IC50 (Cyclic GMP-AMP synthase [1]): 519
- IC50 (Cyclic GMP-AMP synthase [2]): 8 nM
- IC50 (Cyclic GMP-AMP synthase [3]): 13 nM

SMILES: C[C@H]1CN2CC[C@@H]1n1c(nc3ccccc31)O[C@H]1C[C@@H](C(=O)O)N(C1)c1nc(nc3c1oc1ccccc13)CCCCCN(C)C2=O
- Ratio IC50 (Cyclic GMP-AMP synthase [1]): 15
- IC50 (Cyclic GMP-AMP synthase [2]): 186 nM
- IC50 (Cyclic GMP-AMP synthase [3]): 500 nM

SMILES: C[C@H]1CN2CC[C@@H]1n1c(nc3cc(Cl)ccc31)O[C@H]1C[C@@H](C(=O)O)N(C1)c1nc(nc3c1oc1ccccc13)C(F)(F)OCCCCC2=O
- Ratio IC50 (Cyclic GMP-AMP synthase [1]): > 2220
- IC50 (Cyclic GMP-AMP synthase [2]): 3 nM
- IC50 (Cyclic GMP-AMP synthase [3]): 3.1 nM

SMILES: C[C@@H]1CN2CC[C@H]1n1c(nc3cc(Cl)ccc31)O[C@H]1C[C@@H](C(=O)O)N(C1)c1nc(nc3c1oc1ccccc13)CCOCCCC2=O
- Ratio IC50 (Cyclic GMP-AMP synthase [1]): > 253
- IC50 (Cyclic GMP-AMP synthase [2]): 87 nM
- IC50 (Cyclic GMP-AMP synthase [3]): 39 nM

SMILES: Cc1cccc2c1nc1n2[C@@H]2CCN(C[C@H]2C)C(=O)CCCCCC(F)(F)c2nc(c3oc4ccccc4c3n2)N2C[C@H](C[C@H]2C(=O)O)O1
- Ratio IC50 (Cyclic GMP-AMP synthase [1]): 33
- IC50 (Cyclic GMP-AMP synthase [2]): 1580 nM
- IC50 (Cyclic GMP-AMP synthase [3]): 180 nM

SMILES: CC(=O)[C@@H]1C[C@H]2CN1c1nc(nc3c1oc1ccccc13)CCOCCCC(=O)N1CC[C@@H]([C@@H](C)C1)n1c(nc3cc(Cl)ccc31)O2
- Ratio IC50 (Cyclic GMP-AMP synthase [1]): > 3560
- IC50 (Cyclic GMP-AMP synthase [2]): 5 nM
- IC50 (Cyclic GMP-AMP synthase [4]): 2.8 nM
- IC50 (Cyclic GMP-AMP synthase [3]): 2.8 nM

SMILES: C[C@@H]1CN2CC[C@H]1n1c(nc3ccccc31)O[C@H]1C[C@@H](C(=O)O)N(C1)c1nc(nc3c1oc1ccccc13)CCCCCOC2=O
- Ratio IC50 (Cyclic GMP-AMP synthase [1]): 45
- IC50 (Cyclic GMP-AMP synthase [2]): 439 nM
- IC50 (Cyclic GMP-AMP synthase [3]): 180 nM
